The values that follow come from ChEMBL document CHEMBL1127266, “N-sulfonamides of benzopyran-related potassium channel openers: Conversion of glyburide insensitive smooth muscle relaxants to potent smooth muscle contractors” (Bioorg Med Chem Lett, 1994).

Usually IC50 stands for the concentration needed to halve the response being measured.

What all share (assay type): functional
The species named for experiment [1] is Rattus norvegicus. Nature of the experiment: Percent glyburide reversibility as potassium channel (K ATP) opening activity assay.
The species entered for experiment [2] is Rattus norvegicus. Nature of the experiment: Percent activity at 30 uM as the increase (+) and/or decrease (-) in the contractile response for each individual experiment in rat bladder. Details: scale not given: the % may be the effect or the level left.
Experiment [3] is filed under the species Rattus norvegicus. Put plainly: In vitro evaluation for concentration to inhibit KCI (15 mM ) induced contractions of rat bladder.
The species entered for experiment [4] is Rattus norvegicus. Nature of the experiment: In vitro evaluation for concentration to inhibit KCI (25 mM ) induced contractions of rat aorta.

The structures appear in SMILES notation. Where “and” joins values, the source holds several entries; their conditions need not be identical. Equal entries are not always repeated.

Take `CC1(C)Oc2ccc(OC(F)(F)F)cc2[C@H](NS(=O)(=O)c2ccc([N+](=O)[O-])cc2)[C@H]1O`: in experiment [1], the GR came to 0%. Besides, in experiment [2], the Activity worked out at 4.68%.

With `CC1(C)Oc2ccc(OC(F)(F)F)cc2[C@@H](NS(=O)(=O)C(F)(F)F)[C@@H]1O` (stereo in doubt; 1) [listing 1 of 2 here], the figures for the half-maximal inhibitory concentration (IC50) in experiment [3] (Rattus norvegicus) and in experiment [4] were 4.6 µM and 8 µM, respectively.

Turning to `CC1(C)Oc2ccc(OC(F)(F)F)cc2[C@@H](N2Cc3ccccc3C2=O)[C@@H]1O` [CELIKALIM], the IC50 came out at 0.03 µM in experiment [3] (Rattus norvegicus) and 0.013 µM in experiment [4] (Rattus norvegicus, Aorta). Moreover, the GR in experiment [1] is 80% and 55%.

For the compound `CC1(C)Oc2ccc(C#N)cc2[C@H](N2CCCC2=O)[C@H]1O` (single isomer, unassigned) [(-)-CROMAKALIM], the IC50 was 0.15 µM in experiment [3] (Rattus norvegicus) and 0.06 µM in experiment [4] (Rattus norvegicus, Aorta). Moreover, the GR in experiment [1] was 68% and 75%.

The compound `CC1(C)Oc2ccc(OC(F)(F)F)cc2[C@@H](NS(=O)(=O)C(F)(F)F)[C@@H]1O` (stereo in doubt; 8) [listing 1 of 2 here] returned a GR in experiment [1] of 0%.

As for `CC1(C)Oc2ccc(OC(F)(F)F)cc2[C@@H](NS(C)(=O)=O)[C@@H]1O`, the GR in experiment [1] was 8%. In experiment [2], this compound registered an Activity of 3%.

Take `CC1(C)C[C@H](NS(=O)(=O)C(F)(F)F)c2cc(OC(F)(F)F)ccc2O1`: the IC50 in experiment [3] (Rattus norvegicus) came out at 6.2 µM; in experiment [4] (Rattus norvegicus, Aorta) it was 10.7 µM. Moreover, the GR in experiment [1] was 41%.

`CC1(C)Oc2ccc(OC(F)(F)F)cc2[C@@H](NS(=O)(=O)c2cccc3ccccc23)[C@@H]1O` registered an Activity in experiment [2] of 52%.

For the compound `CC1(C)Oc2ccc(OC(F)(F)F)cc2[C@@H](NS(=O)(=O)c2cccnc2)[C@@H]1O`, the Activity in experiment [2] was found to be 133%.

On to `CC1(C)Oc2ccc(OC(F)(F)F)cc2[C@@H](NS(=O)(=O)C(F)(F)F)[C@@H]1O` (stereo in doubt; 8) [listing 2 of 2 here], for which the IC50 in experiment [3] is 3.6 µM; in experiment [4], 2 µM.

Take `CC1(C)Oc2ccc(OC(F)(F)F)cc2[C@H](NS(=O)(=O)C(F)(F)F)[C@H]1O`: the IC50 in experiment [3] (Rattus norvegicus) turned out to be 7.1 µM; in experiment [4] (Rattus norvegicus, Aorta) it was 2.6 µM. Besides, the GR in experiment [1] was 0%.

The compound `CC1(C)Oc2ccc(OC(F)(F)F)cc2[C@@H](NS(=O)(=O)CCl)[C@@H]1O` yielded an Activity in experiment [2] of 39%.

As for `CC1(C)Oc2ccc(OC(F)(F)F)cc2[C@@H](NS(=O)(=O)C(F)(F)F)[C@@H]1O` (stereo in doubt; 1) [listing 2 of 2 here], in experiment [1], the GR is 14% and 2%.

For `CC1(C)Oc2ccc(OC(F)(F)F)cc2[C@@H](NS(=O)(=O)c2ccc([N+](=O)[O-])cc2)[C@@H]1O`, in experiment [2], the Activity was determined as 195%.

In experiment [2], `CN([C@@H]1c2cc(OC(F)(F)F)ccc2OC(C)(C)[C@H]1O)S(=O)(=O)C(F)(F)F` registered an Activity of 352%.

With `CC1(C)Oc2ccc(OC(F)(F)F)cc2[C@@H](NS(=O)(=O)c2ccccc2)[C@@H]1O`, in experiment [2], the Activity is 44%.
